# Experimental data published in US12391671B2, “Allosteric EGFR inhibitors and methods of use thereof” (Dana-Farber Cancer Institute, Inc., priority 2019, dated 2025).
# Where a name gives a salt, the structure may show the parent alone. Read-outs that look alike come from different tables or passages of the source.
# What was measured:
# [1] = tested on: EGFR mutant L858R/T790M Ba/F3 cells; test: Ba/F3 cell proliferation model (Cell Titer Glo), EGFR L858R/T790M; assay type: cell-based, murine; details: 72 hours
# Method in brief: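 Retrovirally transduced Ba/F3 cells exposed 72 h to compound alone or with 1 μg/mL cetuximab, triplicate points, repeated at least three times. Viability by Cell Titer Glo luminescence (ATP); curves fitted by non-linear sigmoidal dose-response regression.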
# [2] = tested on: EGFR mutant L858R Ba/F3 cells; test: Ba/F3 cell proliferation model (Cell Titer Glo), EGFR L858R; assay type: cell-based, murine; details: 72 hours
# Description: Example 26: Ba/F3 Cell Proliferation Models
# The EGFR mutant L858R and L858R/T790M Ba/F3 cells have been previously described (Zhou, W., et al. Nature 462, 2009, 1070-1074). All cell lines were maintained in RPM 1640 (Cellgro; Mediatech Inc., Herndon. CA) supplemented with 10% FBS, 100 units/mL penicillin, 100 units/mL streptomycin. The EGFR I941R mutation was introduced via site directed mutagenesis using the Quick Change Site-Directed Mutagenesis kit (Stratagene; La Jolla, CA) according to the manufacturer's instructions. All constructs were confirmed by DNA sequencing. The constructs were shuttled into the retroviral vector JP1540 using the Cre-recombination system (Agilent Technologies, Santa Clara, CA). Ba/F3 cells were then infected with retrovirus per standard protocols, as described previously (Zhou, et al, Nature 2009). Stable clones were obtained by selection in puromycin (2 μg/ml).
# Growth and inhibition of growth was assessed by the Cell Titer Glo® assay (Promega, Madison, WI) and was performed according to the manufacturer's instructions. The Cell Titer Glo® assay is a luminescence-based method used to determine the number of viable cells based on quantitation of the ATP present, which is directly proportional to the amount of metabolically active cells present. Ba/F3 cells of different EGFR genotypes were exposed to compounds as a single agent or in combination with 1 μg/mL cetuximab for 72 hours and the number of cells used per experiment was determined empirically as has been previously established (Zhou, et al., Nature 2009). All experimental points were set up in triplicates in 384-well plates and all experiments were repeated at least three times. […] The curves were fitted using a non-linear regression model with a sigmoidal dose response.
# [3] = biological target: EGFR L858R (Homo sapiens (Human), UniProt P00533, L858R); test: HTRF-based EGFR biochemical assay (L858R); details: 100 μM ATP, enzyme 0.1 nM
# Method in brief: (§1)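 Mutant EGFR (L858R 0.1 nM, L858R/T790M 0.02 nM) preincubated 30 min with compounds at room temperature in HEPES pH 7.0 buffer with Mg2+/Mn2+, then reacted 20 min with 1 μM biotinylated tyrosine kinase peptide and 100 μM ATP. Phosphorylation read by HTRF (Eu-cryptate anti-phosphotyrosine/streptavidin-XL665, 665/620 nm) after EDTA quench.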
# [4] = biological target: EGFR L858R/T790M (Homo sapiens (Human), UniProt P00533, L858R/T790M); test: HTRF-based EGFR biochemical assay (L858R/T790M); details: 100 μM ATP, enzyme 0.02 nM
# Method in brief: as §1
# [5] = Mus musculus, BaF3, single agent, read-out: Cell IC50 BaF3 EGFR L858R/T790M
# [6] = in combination with 1 μg/mL cetuximab, read-out: Cell IC50 BaF3 EGFR L858R/T790M (+cetux.)
# [7] = Mus musculus, BaF3, single agent, read-out: Cell IC50 BaF3 EGFR L858R
# [8] = in combination with 1 μg/mL cetuximab, read-out: Cell IC50 BaF3 EGFR L858R (+cetux.)
# Chain of EGFR L858R/T790M (P00533 25-1210 T790M/L858R): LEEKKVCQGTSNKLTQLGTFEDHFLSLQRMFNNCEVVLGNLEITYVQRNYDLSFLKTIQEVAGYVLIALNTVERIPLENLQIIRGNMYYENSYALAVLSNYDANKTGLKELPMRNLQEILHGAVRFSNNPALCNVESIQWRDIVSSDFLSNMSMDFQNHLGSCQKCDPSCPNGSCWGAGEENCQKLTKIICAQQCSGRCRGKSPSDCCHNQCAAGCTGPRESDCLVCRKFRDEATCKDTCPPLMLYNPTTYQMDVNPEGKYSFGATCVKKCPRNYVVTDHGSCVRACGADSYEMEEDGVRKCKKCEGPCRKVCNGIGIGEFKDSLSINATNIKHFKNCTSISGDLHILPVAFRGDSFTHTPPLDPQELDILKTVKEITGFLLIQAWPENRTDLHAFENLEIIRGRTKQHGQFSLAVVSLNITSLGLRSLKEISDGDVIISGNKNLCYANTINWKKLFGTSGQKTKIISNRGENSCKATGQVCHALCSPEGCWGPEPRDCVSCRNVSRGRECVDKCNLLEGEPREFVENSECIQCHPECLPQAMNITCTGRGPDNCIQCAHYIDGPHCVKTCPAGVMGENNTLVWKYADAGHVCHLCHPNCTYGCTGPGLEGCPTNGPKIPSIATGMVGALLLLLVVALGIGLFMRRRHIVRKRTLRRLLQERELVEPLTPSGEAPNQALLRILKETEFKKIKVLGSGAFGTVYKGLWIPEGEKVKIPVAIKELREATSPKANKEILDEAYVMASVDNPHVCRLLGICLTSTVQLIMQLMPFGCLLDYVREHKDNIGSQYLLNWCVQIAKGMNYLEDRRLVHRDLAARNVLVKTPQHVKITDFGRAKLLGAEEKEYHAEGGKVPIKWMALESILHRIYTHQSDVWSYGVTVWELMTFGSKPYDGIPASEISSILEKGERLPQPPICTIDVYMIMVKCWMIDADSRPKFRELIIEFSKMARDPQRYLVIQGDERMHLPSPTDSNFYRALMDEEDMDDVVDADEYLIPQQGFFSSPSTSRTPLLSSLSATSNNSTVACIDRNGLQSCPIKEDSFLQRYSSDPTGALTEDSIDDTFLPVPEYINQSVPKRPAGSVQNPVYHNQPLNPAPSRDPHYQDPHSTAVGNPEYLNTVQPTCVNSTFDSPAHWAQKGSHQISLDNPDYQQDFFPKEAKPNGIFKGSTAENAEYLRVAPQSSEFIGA
# Chain of EGFR L858R (P00533 25-1210 L858R): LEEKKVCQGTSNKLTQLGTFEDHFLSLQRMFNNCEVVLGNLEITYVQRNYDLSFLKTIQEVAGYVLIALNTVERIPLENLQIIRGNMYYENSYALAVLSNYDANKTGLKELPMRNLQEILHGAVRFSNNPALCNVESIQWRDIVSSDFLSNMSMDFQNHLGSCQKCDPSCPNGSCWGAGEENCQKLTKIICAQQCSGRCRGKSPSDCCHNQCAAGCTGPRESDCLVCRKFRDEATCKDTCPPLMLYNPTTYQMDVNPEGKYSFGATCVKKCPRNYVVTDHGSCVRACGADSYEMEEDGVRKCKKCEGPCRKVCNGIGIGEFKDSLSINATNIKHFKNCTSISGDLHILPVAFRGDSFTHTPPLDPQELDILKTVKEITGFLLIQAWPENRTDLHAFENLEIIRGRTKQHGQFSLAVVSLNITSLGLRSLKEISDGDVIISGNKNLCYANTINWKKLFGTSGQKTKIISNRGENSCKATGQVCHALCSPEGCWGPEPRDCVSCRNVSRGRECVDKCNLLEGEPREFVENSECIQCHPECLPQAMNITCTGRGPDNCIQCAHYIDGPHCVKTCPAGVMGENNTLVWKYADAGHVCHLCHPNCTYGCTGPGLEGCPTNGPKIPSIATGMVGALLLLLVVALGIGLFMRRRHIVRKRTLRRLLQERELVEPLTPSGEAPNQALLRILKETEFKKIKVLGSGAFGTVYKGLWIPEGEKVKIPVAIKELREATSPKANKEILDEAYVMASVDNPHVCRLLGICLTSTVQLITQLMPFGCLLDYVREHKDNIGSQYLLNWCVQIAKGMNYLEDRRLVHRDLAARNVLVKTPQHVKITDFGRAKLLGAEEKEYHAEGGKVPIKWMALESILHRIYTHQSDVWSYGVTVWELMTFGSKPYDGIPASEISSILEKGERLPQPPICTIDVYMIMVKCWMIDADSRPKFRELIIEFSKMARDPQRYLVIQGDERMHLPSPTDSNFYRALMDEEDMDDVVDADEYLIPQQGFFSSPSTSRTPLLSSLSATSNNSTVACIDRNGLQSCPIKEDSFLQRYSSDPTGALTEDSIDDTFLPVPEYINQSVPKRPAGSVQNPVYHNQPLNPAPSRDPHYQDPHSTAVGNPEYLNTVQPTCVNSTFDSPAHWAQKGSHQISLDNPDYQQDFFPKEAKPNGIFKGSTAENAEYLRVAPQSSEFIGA
SMILES,"IC50 [1, 5] [nM]","IC50 [1, 6] [nM]","IC50 [2, 7] [nM]",IC50 [3] [nM],IC50 [4] [nM],"IC50 [2, 8] [nM]","IC50 ([1]; single agent, read-out: Cell IC50 BaF3 EGFR L858R/T790M) [nM]","IC50 ([2]; single agent, read-out: Cell IC50 BaF3 EGFR L858R) [nM]"
"CN1CCC(c2ccc(-c3ccc4c(c3)C(=S)N([C@@H](c3nc5ccccc5[nH]3)c3cc(F)ccc3O)C4)cc2)CC1 (single isomer, unassigned) [Compound 083]",200,–,630,1,0.6,–,–,–
"CN1CCC(c2ccc(-c3ccc4ncn(C(c5nc6ccccc6[nH]5)c5cc(F)ccc5O)c(=O)c4c3F)cc2)CC1 (stereo not drawn) [Compound 004, 3-((1H-Benzo[d]imidazol-2-yl)(5-fluoro-2-hydroxyphenyl)methyl)-5-fluoro-6-(4-(1-methylpiperidin-4-yl)phenyl)quinazolin-4(3H)-one 2,2,2-trifluoroacetate]",90,10,240,1,0.4,30,–,–
"CN1CCC(c2ccc(-c3ccc4ncn(C(c5nc6ccccc6[nH]5)c5cc(F)ccc5O)c(=O)c4c3)cc2)CC1 (stereo not drawn) [Compound 006, 3-[1H-Benzimidazol-2-yl-(5-fluoro-2-hydroxy-phenyl)methyl]-6-[4-(1-methyl-4-piperidyl)-phenyl]quinazolin-4-one;hydrochloride]",280,5,1100,2,0.5,60,–,–
"CN1CCC(c2ccc(-c3ccc4ncn(C(c5nc6ccccc6[nH]5)c5cc(F)ccc5O)c(=O)c4n3)cc2)CC1 (stereo not drawn) [Compound 009, 3-((1H-Benzo[d]imidazol-2-yl)(5-fluoro-2-hydroxyphenyl)methyl)-6-(4-(1-methylpiperidin-4-yl)phenyl)pyrido[3,2-d]pyrimidin-4(3H)-one 2,2,2-trifluoroacetate]",940,20,3890,3,0.4,180,–,–
"CN1CCC(c2ccc(-c3ccc4c(c3)C(=O)N(C(c3nc5cccnc5[nH]3)c3cc(F)ccc3O)C4)cc2)CC1 (stereo not drawn) [Compound 014, 2-[(5-Fluoro-2-hydroxy-phenyl)-(3H-imidazo[4,5-b]pyridin-2-yl)methyl]-6-[4-(1-methyl-4-piperidyl)phenyl]isoindolin-1-one; hydrochloride]",710,10,810,2,0.3,60,–,–
"CN1CCC(c2ccc(-c3ccc4c(c3)C(=O)N(C(c3nc5cccc(F)c5[nH]3)c3cc(F)ccc3O)C4)cc2)CC1 (stereo not drawn) [Compound 020, 2-[(7-Fluoro-1H-benzimidazol-2-yl)-(5-fluoro-2-hydroxy-phenylmethyl]-6-(4-(1-methy-4-piperidyl)phenyl]isoindolin-1-one; hydrochloride]",440,6,1360,–,–,170,–,–
"CN1CCC(c2ccc(-c3ccc4c(c3)C(=O)N([C@@H](c3nc5ccccc5[nH]3)c3cc(F)ccc3O)C4)cc2)CC1 [Compound 022, 2-[(R)-1H-benzimidazol-2-yl-(5-fluoro-2-hydroxy-phenyl)methyl]-6-[4-(1-methyl-4-piperidyl)phenyl]isoindolin-1-one]",–,5,–,0.3,0.1,40,380,640
"CN1CCC(c2ccc(-c3ccc4c(c3)C(=O)N(C(c3nc5ccccc5[nH]3)c3cc(F)ccc3O)C4)cc2)CC1 (stereo not drawn) [Compound 024, 2-[1H-Benzimidazol-2-yl-(5-fluoro-2-hydroxy-phenyl)methyl]-6-[4-(1-methyl-4-piperidyl)phenyl]isoindolin-1-one; hydrochloride]",440,7,1180,2,0.5,60,–,–
"CN1CCC(c2ccc(-c3ccc4c(c3F)C(=O)N(C(c3nc5ccccc5[nH]3)c3cc(F)ccc3O)C4)cc2)CC1 (stereo not drawn) [Compound 032, 2-[1H-benzimidazol-2-yl-(5-fluoro-2-hydroxy-phenyl)methyl]-7-fluoro-6-[4-(1-methyl-4-piperidyl)phenyl]isoindolin-1-one;hydrochloride]",210,7,960,–,–,50,–,–
"CN1CCC(c2ccc(-c3ccc4cn(C(c5nc6ccccc6[nH]5)c5cc(F)ccc5O)nc4c3F)cc2)CC1 (stereo not drawn) [Compound 034, 2-[1H-benzimidazol-2-yl-[7-fluoro-6-[4-(1-methyl-4-piperidyl)phenyl]indazol-2-yl]methyl]-4-fluoro-phenol;hydrochloride]",420,5,1430,4,0.7,60,–,–
CN1CCC(c2ccc(-c3ccc4ccn(C(c5ccccc5)c5nc6ccccc6[nH]5)c(=O)c4c3F)cc2)CC1 (stereo not drawn) [Compound 071],1380,330,1210,> 100,20,–,–,–
"Cc1nnc(C(c2cc(F)ccc2O)N2Cc3ccc(-c4ccc(C5CCN(C)CC5)cc4)cc3C2=O)[nH]1 (stereo not drawn) [Compound 089, 2-[(5-fluoro-2-hydroxy-phenyl)-(5-methyl-4H-1,2,4-triazol-3-yl)methyl]-6-[4-(1-methyl-4-piperidyl)phenyl]isoindolin-1-one;hydrochloride]",5950,–,4530,–,–,–,–,–

# Second part, led by results:
"IC50 [1, 5] [nM]","IC50 [1, 6] [nM]","IC50 [2, 7] [nM]",IC50 [3] [nM],IC50 [4] [nM],"IC50 [2, 8] [nM]",SMILES,"IC50 ([1]; single agent, read-out: Cell IC50 BaF3 EGFR L858R/T790M) [nM]","IC50 ([2]; single agent, read-out: Cell IC50 BaF3 EGFR L858R) [nM]"
520,10,360,9,5,–,"CN1CCC(c2ccc(-c3ccc4c(=O)n(C(c5nc6ccccc6[nH]5)c5cc(F)ccc5O)ccc4c3)cc2)CC1 (racemic) [Compound 069, Rac-2-(1H-1,3-benzodiazol-2-yl)(5-fluoro-2-hydroxyphenyl)methyl]-6-[4-(1-methylpiperidin-4-yl)phenyl]-1,2-dihydroisoquinolin-1-one]",–,–
30,–,130,2,0.5,–,"CN1CCC(c2ccc(-c3cc(F)c4c(=O)n([C@@H](c5nc6ccccc6[nH]5)c5cc(F)ccc5O)ccc4c3)cc2)CC1 (single isomer, unassigned) [Compound 065]",–,–
890,50,1050,9,2,–,"CN1CCC(c2ccc(-c3ccc4ccn(C(c5nc6ccccc6[nH]5)c5cc(F)ccc5O)c(=O)c4c3)cc2)CC1 (stereo not drawn) [Compound 063, 2-[1H-benzimidazol-2-yl-(5-fluoro-2-hydroxy-phenyl)methyl]-7-[4-(1-methyl-4-piperidyl)phenyl]isoquinolin-1-one]",–,–
220,20,670,31,20,–,"CN1CCC(c2ccc(-c3cc(F)c4c(=O)n(C(c5ccccc5)c5nc6ccccc6[nH]5)ccc4c3)cc2)CC1 (stereo not drawn) [Compound 064, 2-[1H-benzimidazol-2-yl(phenyl)methyl]-8-fluoro-6-[4-(1-methyl-4-piperidyl)phenyl]-isoquinolin-1-one; dihydrochloride]",–,–
70,5,160,4,1,–,"CN1CCC(c2ccc(-c3cc(F)c4c(=O)n(C(c5nc6ccccc6[nH]5)c5cc(F)ccc5O)ccc4c3)cc2)CC1 (stereo not drawn) [Compound 070, 2-[1H-benzimidazol-2-yl-(5-fluoro-2-hydroxy-phenyl)methyl]-8-fluoro-6-[4-(1-methyl-4-piperidyl)phenyl]isoquinolin-1-one]",–,–
580,20,930,21,14,–,"CN1CCC(c2ccc(-c3cc4ccn(C(c5nc6ccccc6[nH]5)c5cc(F)ccc5O)c(=O)c4cc3F)cc2)CC1 (stereo not drawn) [Compound 073, 2-[1H-benzimidazol-2-yl-(5-fluoro-2-hydroxy-phenyl)methyl]-7-fluoro-6-[4-(1-methyl-4-piperidy)phenyl]-isoquinolin-1-one]",–,–
